Entries after “also recorded” stand apart in the source; their conditions may differ.
Legend:
[1] = system: SNI rats; assay: Spared nerve injury (SNI) rats, Hargreaves thermal test; assay type: in vivo, rat; details: 30 mg/kg, 1 mL I.P.
Procedure: FIG. 3A. Spared Nerve Injury (SNI) rats' left hindpaw withdrawal latencies in response to thermal stimulation (Hargreaves test). Each SNI rat received either EXAMPLE-106, 107, or 115, (each 30 mg/kg, 1 mL I.P.), or vehicle (2% DMSO in 0.5% HPC). Sham rats also received vehicle I.P. injections. […] 40 seconds were cutoff in order to prevent tissue damage. The sham-vehicle serves as a positive control (n=8 per treatment group).
In additional examples shown here, the analgesic effects were further evaluated in another rat species. Baseline thermal and mechanical thresholds of male rats (Sprague-Dawley rats, 275 g-325 g, Harlan) were taken prior to surgery; baseline thresholds were measured on the rats' left hindpaws. Thirty-two rats underwent the SNI surgery on their left hind leg; 8 rats underwent surgery without injury of the nerves as a sham group. Two weeks post-surgery, the thermal thresholds of each rat were reassessed. […] Each rat received either EXAMPLE-106, -107, -115 (each 30 mg/kg, 1 mL I.P.), or vehicle (2% DMSO in 0.5% HPC). Thermal and mechanical thresholds were measured at 1, 2, 3, 4, 5, 6, 7, and 8 hours post-treatment/dosing. […] The drug actions started around 1 hour post-injection and peaked between 2 and 3 hours, and the drug effects gradually declined to pre-treatment levels over 6-7 hours (FIGS. 3A and B).

[2] = system: CFA mice; assay: Complete Freund's Adjuvant (CFA)-induced inflammatory pain in mice, von Frey test; assay type: in vivo, mouse; details: 30 mg/kg I.P.
Procedure: FIG. 7. Effects of EXAMPLE-96, 107 or 115 (each 30 mg/kg, I.P.) or gabapentin (as a benchmark, 100 mg/kg, I.P) on Complete Freund's Adjuvant (CFA)-induced inflammation in male, mice (C57BL/6, ˜2 months old; n=8 mice per group). Mechanical pain threshold assessment of CFA mice's left hindpaws were measured using von Frey monofilament test at 0.5, 1, 2, 4, and 6 hours after treatment.
Because knockout or antisense knockdown of the Cav3.2 isoform produces analgesic effects in neuropathic pain as well as in inflammatory pain in mice (Choi et al., 2007), we used the Complete Freund adjuvant (CFA)-inflammatory pain in mice to investigate the drug effects. EXAMPLE-96, -115, and -107 (each at 30 mg/kg, I.P.) and a reference gabapentin (100 mg/kg, I.P.) was individually administered to mice that had CFA-induced inflammation on their left hindpaws.

[3] = system: taxol-induced neuropathic pain model in mice; assay: Taxol-induced neuropathic pain in mice, von Frey test; assay type: in vivo, mouse; details: taxol 4 mg/kg I.P., 3, 10 or 30 mg/kg I.P.
Procedure: FIG. 6A. Effects of EXAMPLE-115 on taxol (4 mg/kg, I.P.)-induced neuropathic pain model in mice. Mechanical pain thresholds of left hindpaws were assessed using von Frey monofilament test. Each mouse received either EXAMPLE-115 (3, 10 or 30 mg/kg, I.P.) or vehicle (2% DMSO in 0.5% HPC, I.P.; n=8 per group). Injection of taxol lowered mechanical pain thresholds.
FIG. 6B. Effects of EXAMPLE-123 on taxol (4 mg/kg, I.P.)-induced neuropathic pain model in a separate cohort of mice. Mechanical pain thresholds of left hindpaws were assessed using von Frey monofilament test. Each mouse received either EXAMPLE-123 (30 mg/kg, I.P., n=8) or vehicle (2% DMSO in 0.5% HPC, I.P.).
Chemotherapy-induced painful neuropathy is a common side effect associated with chronic treatment with Taxol (paclitaxel) or other anticancer drugs based on cytotoxicity. Taxol or paclitaxel is one of the most popular drugs used for the treatment of various cancers (Chaudhry et al., 1994). The chemotherapy-induced peripheral neuropathy manifests as chronic hyperalgesia and other sensory abnormalities. Taxol (Sigma, 4.0 mg/kg, I.P.) was dissolved in saline containing 5% DMSO (vehicle) and injected to mice (freshly prepared before injection).

[4] = system: baclofen-induced absence seizures in mice; assay: Baclofen-induced absence seizures in mice (EEG spike wave discharges); assay type: in vivo, mouse; details: 30 mg/kg I.P. 30 min before baclofen
Description: FIG. 11. Effects of EXAMPLE-128 on baclofen-induced absence seizures in mice.
Absence seizures, especially childhood absence epilepsy, is characterized by a brief loss of consciousness and muscle tone as the primary manifestations. Ethosuximide, a weak and non-selective T-type calcium channel inhibitor, is effective in treating only absence seizures (Huguenard J R, 2002); while the GABAB baclofen exacerbates transgenic absence seizure models and alone induces absence seizures in wild-type animals (Han et al., 2012). […] The baclofen-induced brain seizure activity mimics absence seizures.

[5] = system: harmaline-induced tremor in mice; assay: Harmaline-induced essential tremor model in mice; assay type: in vivo, mouse
Procedure: FIG. 12. Effects of EXAMPLE-128 on harmaline-induced essential tremor model in mice. Harmaline was dissolved in saline and administrated at 10 mg/kg (S.C.) mice (C57BL/6, male, 3-5 months). Ten minutes after tremors occurred, mice were treated with either EXAMPLE-128 (30 mg/kg, I.P.) or vehicle (2% DMSO in 0.5% HPC).
Harmaline can induce tremors modeling human essential tremor manifested as postural and kinetic tremors (Nahab et al., 2012). Harmaline was dissolved in saline and administrated at 10 mg/kg (s.c.) to mice (C57BL/6, male, 3 months) and the mice were immediately returned to homecage monitor with an piezoelectric sensor operated by the SmartCage™ for continual recordings for 60 min. […] Mice were randomly assigned to be treated with EXAMPLE-128 (3, 10 or 30 mg/kg, I.P.) or vehicle (2% DMSO in 0.5% HPC), starting ten min after tremors began, Tremor episode numbers and each episode's duration were offline human scored.

[6] = SafetyScreen 44 ancillary pharmacology panel
Description: (§1) Moreover, compounds useful in therapeutic formulations may be further screened for undesired side effect activities by utilizing large ancillary pharmacology panel screens, for example, SafetyScreen 44 and the Ames microsomemutagenicity assay (Eurofins-Cerep, US and France).

[7] = system: Ames microsomemutagenicity assay; assay: Ames microsome mutagenicity assay; assay type: cell-based
Description: as §1

| Compound | left hindpaw withdrawal latency to thermal stimulation (hyperalgesia) [1] | mechanical pain threshold, CFA-induced inflammation [2] | mechanical pain threshold, taxol-induced neuropathic pain [3] | spike wave discharges (SWD) occurring frequency [4] | total tremor occurring time in 60 minutes ([5]; harmaline 10 mg/kg S.C., 30 mg/kg I.P.) | total time spent in tremors ([5]; harmaline 10 mg/kg s.c., 3, 10 or 30 mg/kg I.P.) | off-target activities [6] | mutagenicity [7] |
| --- | --- | --- | --- | --- | --- | --- | --- | --- |
| O=C(Nc1nnc(-c2ccccc2)o1)c1ccc(Cl)s1 [Example 115, 5-Chloro-N-(5-phenyl-1,3,4-oxadiazol-2-yl)thiophene-2-carboxamide] | elevated both thermal and mechanical thresholds; also recorded: reduced hyperalgesia | showed an analgesic effect in mechanical pain | produced significant effects on Taxol-induced pain compared to vehicle in a dose-dependent manner; also recorded: reversed the taxol-induced neuropathic pain in a dose-dependent manner |  |  |  |  |  |
| CC(C)(C)NC(=O)CN1CCC2(CC1)CC2NC(=O)c1cc(F)cc(Cl)c1 (single isomer, unassigned) [Example 128, (S)—N-(6-(2-(tert-Butylamino)-2-oxoethyl)-6-azaspiro[2.5]octan-1-yl)-3-chloro-5-fluorobenzamide or (R)—N-(6-(2-(tert-Butylamino)-2-oxoethyl)-6-azaspiro[2.5]octan-1-yl)-3-chloro-5-fluorobenzamide] |  |  |  | significantly reduced the SWD occurring frequence; also recorded: significantly reduced the SWD occurring frequency | significantly reduced the total tremor occurring time | significantly reduced the total time spent in tremors in a dose-dependent manner | no significant off-target activities | lack of mutagenicity |
